Results reported in patent US20040171563A1, “Novel use of tyrosine kinase inhibitor” (priority 2001, published 2004).

Tests used:
[1] = molecular target: T1, GTK (Mus musculus, UniProt Q922K9); experiment: in vitro kinase assay for GTK activity; assay type: biochemical; conditions: for Ki: inhibition of GTK activity in in vitro kinase assays; for inhibition of GTK (qualitative): screening of commercially available tyrosine kinase inhibitors
T1 construct: made in house
Protocol: (§1) Ki using AG957 was approximately 1 μM and that of SU4984 was about 10 μM. These inhibitors were added to Islets of Langerhans in in vitro cultures together with the cytokines IL-1β+IFN-γ, and apoptosis was determined by propidium iodide staining after 24 h. It was shown that AG957 and SU 4984 prevented cytokine-induced apoptosis by 60 and 75%, respectively, which further lends support to the view that GTK-inhibition prevents beta-cell destruction in type 1 diabetes. […] It is expected that also human FRK will be inhibited.
Assay for the assessment of GTK (FRK) kinase activity: The basis for screening for specific GTK kinase inhibitors is in vitro kinase assays, utilizing baculovirus produced GTK which is purified by immunoprecipitation using the GTK antibody. Both these reagents are available for the skilled person within this field. Phosphorylation of a synthetic peptide substrate will be studied (Annerén and Welsh, 2000) testing different concentrations of inhibitors, and IC50 values can then be determined for inhibition of GTK kinase activity. The specificity of drug-induced GTK-inhibition is then assessed by comparing the IC50 values with those of other tyrosine kinases.

[2] = test system: Islets of Langerhans; experiment: cytokine-induced apoptosis in Islets of Langerhans, propidium iodide staining; assay type: cell-based; conditions: in vitro islet cultures with IL-1β+IFN-γ, propidium iodide staining after 24 h
Protocol: as §1

T1 sequence (Q922K9 whole entry): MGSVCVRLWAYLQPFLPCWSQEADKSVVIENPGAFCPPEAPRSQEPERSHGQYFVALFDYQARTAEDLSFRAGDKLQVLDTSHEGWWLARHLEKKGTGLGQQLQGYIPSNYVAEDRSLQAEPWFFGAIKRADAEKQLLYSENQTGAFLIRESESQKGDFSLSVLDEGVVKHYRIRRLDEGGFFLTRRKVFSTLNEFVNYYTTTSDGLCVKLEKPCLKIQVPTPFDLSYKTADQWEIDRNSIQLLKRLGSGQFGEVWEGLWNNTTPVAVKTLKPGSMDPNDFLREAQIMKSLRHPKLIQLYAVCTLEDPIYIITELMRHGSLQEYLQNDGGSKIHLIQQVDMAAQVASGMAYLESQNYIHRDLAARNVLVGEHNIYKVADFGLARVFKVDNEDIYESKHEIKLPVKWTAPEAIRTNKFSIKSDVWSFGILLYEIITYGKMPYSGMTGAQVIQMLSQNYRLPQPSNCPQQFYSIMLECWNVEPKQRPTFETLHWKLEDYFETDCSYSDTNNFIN

| Ki [1] [µM] | Compound | inhibition of GTK (qualitative) [1] | prevention of cytokine-induced apoptosis [2] [%] |
| --- | --- | --- | --- |
| ~1 | COC(=O)c1ccc(NCc2cc(O)ccc2O)cc1 [AG957] | inhibited GTK activity in in vitro kinase assays with a reasonably high degree of specificity | 60 |
|  | N#C/C(=C\c1ccc(O)c(O)c1)C(=O)O [AG 30] | inhibit GTK with a fair degree of specificity |  |
| ~10 | O=CN1CCN(c2ccc(/C=C3\C(=O)Nc4ccccc43)cc2)CC1 [SU4984] | inhibited GTK activity in in vitro kinase assays with a reasonably high degree of specificity | 75 |
